Ki data for one molecule are collected here from article PMC6937300, “A novel phytocannabinoid isolated from Cannabis sativa L. with an in vivo cannabimimetic activity higher than Δ^9-tetrahydrocannabinol: Δ^9-Tetrahydrocannabiphorol” (Scientific Reports, 2019).

This experiment addresses T1, human CB1 receptor (Homo sapiens, UniProt P21554).
T1 construct: gene CNR1

T1 sequence (P21554 whole entry): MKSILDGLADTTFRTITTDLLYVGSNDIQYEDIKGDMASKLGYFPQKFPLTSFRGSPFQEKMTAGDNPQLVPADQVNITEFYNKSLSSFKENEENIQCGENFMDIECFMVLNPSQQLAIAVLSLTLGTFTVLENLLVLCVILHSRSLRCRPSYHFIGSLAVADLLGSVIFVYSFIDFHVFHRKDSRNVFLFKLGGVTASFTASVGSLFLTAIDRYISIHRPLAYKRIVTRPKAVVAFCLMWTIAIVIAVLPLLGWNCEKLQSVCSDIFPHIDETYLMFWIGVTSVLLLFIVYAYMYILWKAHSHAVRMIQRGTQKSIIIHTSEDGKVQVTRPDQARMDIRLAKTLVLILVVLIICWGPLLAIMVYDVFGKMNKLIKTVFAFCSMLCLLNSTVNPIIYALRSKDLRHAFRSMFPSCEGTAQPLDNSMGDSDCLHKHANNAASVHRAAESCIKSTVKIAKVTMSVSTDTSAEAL

Consider `CCCCCCCc1cc(O)c2c(c1)OC(C)(C)[C@@H]1CCC(C)=C[C@@H]21` [(-)-trans-Δ^9-THCP, (6aR,10aR)-3-heptyl-6,6,9-trimethyl-6a,7,8,10a-tetrahydro-6H-benzo[c]chromen-1-ol], for which the Ki worked out at 1.2 nM.
